Patent publication US9896415B2, “Chalcone derivatives having an anti-allergic activity” (UNIVERSITE CLAUDE BERNARD LYON I, priority 2013, dated 2018)
“Also recorded” adds a separate entry of the source. Where two headings read alike, the source gives them in different places.

What was measured:
normal human basophils = assay: Degranulation of normal human basophils after anti-IgE antibody, CD63 and CD203c expression by flow cytometry; type: cell-based; details: 4 donors; for Emax: Homo sapiens, effect-dose study, 1 to 100 micromolars; for dose effect, CD63 marker / dose effect, CD203c marker: between 1 and 100 micromolars, no plateau effect
Excerpt: The compounds according to the invention have a substantial protective activity towards the degranulation of normal human basophils, such that it may be evaluated by the overexpression of CD203c and of CD63 after exposure to an anti-IgE antibody. In particular, the concentration of the compound according to the invention giving the possibility of obtaining a 50% protective effect (with respect to a value of 100% corresponding to the control achieved in the absence of a compound according to the invention) belongs to the range from 1 to 100 micromolar.
a) Activity on the Degranulation of Normal Human Basophils CD203c and CD 63
This test consists of analyzing with flow cytometry the expression of the membrane markers CD203c and CD63 on normal human basophils. For this blood from healthy donors is exposed to an antibody directed against immunoglobulins E (IgE) which leads to activation and degranulation of the basophils, causing an increase in the expression of CD203c and CD63. […] As the compounds of interest are dissolved in dimethylsulfoxide (DMSO), a control is also produced by incubating the basophils in the presence of DMSO without any active ingredient.

asthma model in mice = assay: Ovalbumin (OVA) asthma model in mice: plethysmography, broncho-alveolar wash and lung cytology; type: in vivo; details: one day after last OVA challenge; for intrabronchial infiltrate: broncho-alveolar wash; for respiratory function: Penh in response to increasing doses of metacholine: non-invasive plethysmography, i.p. daily
Excerpt: b) Effect on the Respiratory Function in an Asthma Model in Mice
The compounds according to the invention were also subject to tests in vivo. Cromoglycate was used as a reference compound since presently it is the only compound presently marketed having been described as having an effect on the degranulation of basophils.
• The model used is an ovalbumin model (ova). The procedure includes: • 4 weeks of sensitization with ova solubilized in a solution containing alum and injected intra-peritoneally (I-P). • 1 week of challenge with 3 intranasal challenges of ova solubilized in phosphate buffer PBS for 3 subsequent days. • Injections of PBS, of compound (I.1) or of cromoglycate were carried out all along the challenge phase and continued until the date of analysis in an amount of one injection per day intra-peritoneally. • The analyses were carried out 1 and 5 days after the last intranasal challenge. • These analyses comprise:
One Day after the Last Challenge • an analysis the of the respiratory function by non-invasive plethysmography on 10 mice per group. The respiratory function is analysed in response to an increasing dose of metacholine (broncho-constrictor). • recovery and analysis of the broncho-alveolar wash (count of the number of cells, and cytological analysis) on 5 mice. • dissection of the lungs for cytological analysis (microscopic study after staining) on the same 5 mice.
Five Days after the Last Challenge • an analysis of the pulmonary resistance by the forced oscillation technique (invasive method) on the 5 remaining mice of different groups. The pulmonary resistance is analyzed in response to an increasing dose of metacholine (bronchoconstrictor). • recovery and analysis of the broncho-alveolar wash (counting the number of cells, and deposition on a slide by cytospin for cytological analysis) on these 5 mice.
A compound group (1.1) (n=10), an i-cm group (cromoglycate, n=10) and an i-PBS group (n=10).
The compound (I.1) is dissolved in a DMSO solution. This stock solution is then diluted in an ethanol:PBS (vol:vol) solution before intraperitoneal administration.
The Penh (enhanced pause) values, calculated from plethysmography measurements, express the prolongation of the expiratory pause time observed in subjects having a reduction of the bronchial calibre and are correlated with the respiratory resistance. A decrease in the Penh values therefore corresponds to a protective effect towards bronchoconstriction induced by OVA.

[1] = read-out: maximum effect on CD63
[2] = read-out: maximum effect on CD203c
[3] = flow cytometry cytology, compared with PBS group

| SMILES | Emax (normal human basophils; [1]) | Emax (normal human basophils; [2]) | dose effect, CD63 marker (normal human basophils) | dose effect, CD203c marker (normal human basophils) | intrabronchial infiltrate (asthma model in mice; compared with PBS group) | T lymphocytes in the intrabronchial infiltrate (asthma model in mice; [3]) | eosinophils in the intrabronchial infiltrate (asthma model in mice; [3]) | intra-pulmonary hypereosinophilia (asthma model in mice; lungs, flow cytometry cytology) | respiratory function: Penh in response to increasing doses of metacholine (asthma model in mice; compared with PBS group) |
| --- | --- | --- | --- | --- | --- | --- | --- | --- | --- |
| COc1cc(OC)c(/C=C/C(=O)c2c(O)cc(OC)c(C3CCN(C)CC3)c2OC)c(OC)c1 [compound (I.1)] | 80% | 40% | A dose effect is observed | A dose effect is observed | significant decrease in the intrabronchial infiltrate | reduction | a reduction in the eosinophils | much less substantial | the difference is only significant for the dose at 40 mg/ml; also recorded: improves the respiratory function of the mice |
| COc1cccc(OC)c1/C=C/C(=O)c1c(O)cc(OC)c(C2CCN(C)CC2)c1OC [compound (I.2)] | 80% | 40% | A dose effect is observed | A dose effect is observed | – | – | – | – | – |
| COc1cc(O)c(C(=O)/C=C/c2c(Cl)cccc2Cl)c(OC)c1C1CCN(C)CC1 [compound (I.3)] | 80% | 40% | A dose effect is observed | A dose effect is observed | – | – | – | – | – |
| O=C(O)c1cc(=O)c2c(OCC(O)COc3cccc4oc(C(=O)O)cc(=O)c34)cccc2o1 [cromoglycate, reference compound] | – | – | – | – | does not exhibit any significant difference | – | does not show any significant reduction in the eosinophil infiltrate | – | same increases in Penh |
